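Growth conditions: 96-well plates. Treatment: test compound, 48 hours, 5 concentrations. Analysis: linear interpolation between bracketing concentrations; unreached endpoints set to highest concentration. GI50: concentration for 50% inhibition of growth.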 The source made the active and inactive calls. Cut-off read from the data, not from the text of the source: active = GI50 up to about 1.1 µM and inactive = higher.
Assays:
Test in all cases: NCI-60 cell line screen, 48 h
U-251 = test system: U-251
786-0 = test system: 786-0
HCT-15 = test system: HCT-15
OVCAR-5 = test system: OVCAR-5
HL-60 = test system: HL-60
HCC 2998 = test system: HCC 2998
MDA-MB-231 = test system: MDA-MB-231
OVCAR-3 = test system: OVCAR-3
HT-29 = test system: HT-29
MDA-N = test system: MDA-N
OVCAR-8 = test system: OVCAR-8
A498 = test system: A498
HOP-62 = test system: HOP-62
NCI-H23 = test system: NCI-H23
MDA-MB-435 = test system: MDA-MB-435
UACC-62 = test system: UACC-62
NCI-H522 = test system: NCI-H522
SK-MEL-2 = test system: SK-MEL-2
BT-549 = test system: BT-549
DU-145 = test system: DU-145

Structure (SMILES) | GI50 (U-251) | GI50 (786-0) | GI50 (HCT-15) [µM] | GI50 (OVCAR-5) | GI50 (HL-60) | GI50 (HCC 2998) | GI50 (MDA-MB-231) | GI50 (OVCAR-3) | GI50 (HT-29) | GI50 (MDA-N) | GI50 (OVCAR-8) | GI50 (A498) | GI50 (HOP-62) | GI50 (NCI-H23) | GI50 (MDA-MB-435) | GI50 (UACC-62) | GI50 (NCI-H522) | GI50 (SK-MEL-2) | GI50 (BT-549) | GI50 (DU-145)
O=S(=O)(O)c1ccc(/N=N/c2ccccc2)cc1 | > 100 µM (inactive) | > 100 µM (inactive) | > 100 | > 100 µM (inactive) | > 100 µM (inactive) | > 100 µM (inactive) | > 100 µM (inactive) | > 100 µM (inactive) | > 100 µM (inactive) | > 100 µM (inactive) | > 100 µM (inactive) | > 100 µM (inactive) | > 100 µM (inactive) | > 100 µM (inactive) | > 100 µM (inactive) | > 100 µM (inactive) | > 100 µM (inactive) | > 100 µM (inactive) | > 100 µM (inactive) | > 100 µM (inactive)
O=C(/C=C/c1cccc(Br)c1)c1ccc(Cl)cc1 | 5.98 µM (inactive) | 14.3 µM (inactive) | 14.8 | 15.6 µM (inactive) | 14.3 µM (inactive) | 18.8 µM (inactive) | 18 µM (inactive) | 16.7 µM (inactive) | 11.2 µM (inactive) | 6.32 µM (inactive) | 17 µM (inactive) | 13.3 µM (inactive) | 19.2 µM (inactive) | 17 µM (inactive) | 6.25 µM (inactive) | 14.8 µM (inactive) | 13.6 µM (inactive) | 15.3 µM (inactive) | 17 µM (inactive) | 14.8 µM (inactive)
Cc1ccc(C(O)c2cnc(C)n2Cc2ccccc2)cc1 (stereo not given) | > 100 µM (inactive) | > 100 µM (inactive) | > 100 | > 100 µM (inactive) | 6.43 µM (inactive) | > 100 µM (inactive) | > 100 µM (inactive) | > 100 µM (inactive) | > 100 µM (inactive) | > 100 µM (inactive) | > 100 µM (inactive) | > 100 µM (inactive) | > 100 µM (inactive) | > 100 µM (inactive) | > 100 µM (inactive) | > 100 µM (inactive) | > 100 µM (inactive) | > 100 µM (inactive) | > 100 µM (inactive) | > 100 µM (inactive)
CCC1(O)C(=O)OCc2c1cc1n(c2=O)Cc2cc3c(N)cccc3nc2-1 (stereo not given) [RS-9-Aminocamptothecin] | < 0.0115 µM (active) | 0.0108 µM (active) | 0.267 | 0.19 µM (active) | < 0.0128 µM (active) | 0.177 µM (active) | 2.1 µM (inactive) | 0.277 µM (active) | 0.118 µM (active) | 0.182 µM (active) | 0.027 µM (active) | 0.156 µM (active) | < 0.0119 µM (active) | < 0.0109 µM (active) | 0.0607 µM (active) | < 0.01 µM (active) | 0.0196 µM (active) | 0.288 µM (active) | 0.0668 µM (active) | < 0.011 µM (active)
